The values that follow come from patent publication US20110269811A1, “INHIBITORS OF SEMICARBAZIDE-SENSITIVE AMINE OXIDASE (SSAO) AND VAP-1 MEDIATED ADHESION USEFUL FOR TREATMENT AND PREVENTION OF DISEASES” (priority 2006, published 2011).

Each structure is given as a SMILES string. Structures can show the parent of a compound that is named as a salt. Bounds are passed on as bounds.

The target of one data set is T1, Recombinant human MAO-A (Homo sapiens, UniProt P21397).
T1 construct: purchased BD Biosciences (MA, USA)
T1 sequence (P21397 1-527): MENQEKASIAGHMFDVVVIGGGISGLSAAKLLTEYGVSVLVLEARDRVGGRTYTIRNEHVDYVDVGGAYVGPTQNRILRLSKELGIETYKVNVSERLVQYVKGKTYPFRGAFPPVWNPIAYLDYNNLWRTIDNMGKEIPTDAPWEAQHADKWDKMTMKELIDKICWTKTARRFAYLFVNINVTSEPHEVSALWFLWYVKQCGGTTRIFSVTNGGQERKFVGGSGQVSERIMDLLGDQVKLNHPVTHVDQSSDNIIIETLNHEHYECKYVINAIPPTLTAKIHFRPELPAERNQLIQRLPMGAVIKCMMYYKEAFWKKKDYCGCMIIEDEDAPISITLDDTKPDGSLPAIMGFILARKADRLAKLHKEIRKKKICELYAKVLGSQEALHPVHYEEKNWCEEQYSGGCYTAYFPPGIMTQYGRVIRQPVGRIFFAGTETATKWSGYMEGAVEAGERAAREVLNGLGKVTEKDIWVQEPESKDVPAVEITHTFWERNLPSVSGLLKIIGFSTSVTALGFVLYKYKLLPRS
The data set is described as follows: MAO-A activity, colorimetric method, tyramine substrate. Type of data set: biochemical. The settings on record: for Specificity of SSAO on MAO-A: ratio of IC50 for MAO-A to IC50 for SSAO; for IC50: recombinant human MAO-A. As for the experimental part:
The specificities of the different SSAO inhibitors was tested by determining their abilities to inhibit MAO-A and MAO-B activities in vitro. Recombinant human MAO-A and human MAO-B enzymes were obtained from BD Biosciences (MA, USA). MAO activity was measured using the colorimetric method essentially as described (Holt, A. et al. (1997) Anal. Biochem. 244: 384). A pre-determined amount of inhibitor diluted in 0.2M potassium phosphate buffer, pH 7.6, was added to each well, if required. The amount of inhibitor varied in each assay but was generally at a final concentration of between 1 nM and 1 mM. Controls lacked inhibitor. The following agents were then added to a final reaction volume of 200 μL in 0.2M potassium phosphate buffer, pH 7.6: 0.04 mg/ml of MAO-A or 0.07 mg/ml MAO-B enzyme, 15 μL of 10 mM tyramine substrate (for MAO-A), or 15 μL 100 mM benzylamine substrate (for MAO-B), and 50 μL of freshly made chromogenic solution. The chromogenic solution contained 750 μM vanillic acid (Sigma#V-2250), 400 μM 4-aminoantipyrine (Sigma #A-4328) and 12 U/mL horseradish peroxidase (Sigma #P-8250) in order to cause a change of 0.5 OD A490 nm/h. This was within the linear response range for the assay. The plates were incubated for 60 min at 37° C. The increase in absorbance, reflecting MAO activity, was measured at 490 nm using microplate spectrophotometer (Power Wave 40, Bio-Tek Inst.). Inhibition was presented as percent inhibition compared to control after correcting for background absorbance and IC50 values calculated using GraphPad Prism software. Clorgyline and pargyline (inhibitors of MAO-A and -B, respectively) at 1 μM, were added to some wells as positive controls for MAO inhibition. […] The compounds described in the present invention are therefore expected to have therapeutic utility in the treatment of diseases and conditions in which the activity of SSAO/VAP-1 plays a role, that is, in SSAO/VAP-1 mediated diseases and conditions.

Another data set has as its target T2, human MAO-B (Homo sapiens, UniProt P27338).
T2 construct: purchased BD Biosciences (MA, USA)
T2 sequence (P27338 1-520): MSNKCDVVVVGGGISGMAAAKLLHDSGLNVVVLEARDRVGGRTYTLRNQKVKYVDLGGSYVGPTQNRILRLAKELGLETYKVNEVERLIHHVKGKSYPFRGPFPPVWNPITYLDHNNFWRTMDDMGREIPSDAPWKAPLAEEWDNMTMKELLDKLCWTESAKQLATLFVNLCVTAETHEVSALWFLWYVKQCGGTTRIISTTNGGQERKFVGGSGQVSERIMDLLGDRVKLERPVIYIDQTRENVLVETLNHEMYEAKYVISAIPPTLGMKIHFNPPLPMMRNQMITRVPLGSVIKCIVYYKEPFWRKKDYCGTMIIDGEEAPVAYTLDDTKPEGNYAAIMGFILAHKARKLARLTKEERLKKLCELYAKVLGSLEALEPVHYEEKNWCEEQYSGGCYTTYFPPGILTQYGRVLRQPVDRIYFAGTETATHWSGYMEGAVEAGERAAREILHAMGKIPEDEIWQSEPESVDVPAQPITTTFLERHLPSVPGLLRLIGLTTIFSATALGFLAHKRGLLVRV
Briefly: MAO-B activity, colorimetric method, benzylamine substrate. The class given is biochemical. The settings on record: for Specificity of SSAO on MAO-B: ratio of IC50 for MAO-B to IC50 for SSAO; for IC50: recombinant human MAO-B. As for the experimental part:
The specificities of the different SSAO inhibitors was tested by determining their abilities to inhibit MAO-A and MAO-B activities in vitro. Recombinant human MAO-A and human MAO-B enzymes were obtained from BD Biosciences (MA, USA). MAO activity was measured using the colorimetric method essentially as described (Holt, A. et al. (1997) Anal. Biochem. 244: 384). A pre-determined amount of inhibitor diluted in 0.2M potassium phosphate buffer, pH 7.6, was added to each well, if required. […] Controls lacked inhibitor. The following agents were then added to a final reaction volume of 200 μL in 0.2M potassium phosphate buffer, pH 7.6: 0.04 mg/ml of MAO-A or 0.07 mg/ml MAO-B enzyme, 15 μL of 10 mM tyramine substrate (for MAO-A), or 15 μL 100 mM benzylamine substrate (for MAO-B), and 50 μL of freshly made chromogenic solution. The chromogenic solution contained 750 μM vanillic acid (Sigma#V-2250), 400 μM 4-aminoantipyrine (Sigma #A-4328) and 12 U/mL horseradish peroxidase (Sigma #P-8250) in order to cause a change of 0.5 OD A490 nm/h. […] The plates were incubated for 60 min at 37° C. The increase in absorbance, reflecting MAO activity, was measured at 490 nm using microplate spectrophotometer (Power Wave 40, Bio-Tek Inst.). Inhibition was presented as percent inhibition compared to control after correcting for background absorbance and IC50 values calculated using GraphPad Prism software. Clorgyline and pargyline (inhibitors of MAO-A and -B, respectively) at 1 μM, were added to some wells as positive controls for MAO inhibition.

`COc1ccc(C/C(=C/F)CN)cc1.Cl` [Compound I-1-Z, (Z)-3-Fluoro-2-(4-methoxybenzyl)-allylamine hydrochloride]: at Recombinant human MAO-A, the “Specificity of SSAO on MAO-A” value came to 4700 and the IC50 was found to be 85 µM. For the same compound, at human MAO-B, the “Specificity of SSAO on MAO-B” value was determined as 88 and the 50% inhibitory concentration (IC50) was determined as 1.6 µM.

For `CCOc1ccc(C/C(=C\F)CN)cc1.Cl` [Compound I-2-E, (E)-3-Fluoro-2-(4-ethoxybenzyl)-allylamine hydrochloride], the melting point lay in the range of 167 to 168 °C. Moreover, at Recombinant human MAO-A, the “Specificity of SSAO on MAO-A” value came out at 9400 and the half-inhibitory concentration (IC50) was 85 µM. For the same compound, at human MAO-B, the “Specificity of SSAO on MAO-B” value amounted to 189 and the IC50 was 1.7 µM.

For `CCOc1ccc(C/C(=C/F)CN)cc1.Cl` [Compound I-2-Z, (Z)-3-Fluoro-2-(4-ethoxybenzyl)-allylamine hydrochloride], the melting point was 153 to 154 °C. Also, on Recombinant human MAO-A, the “Specificity of SSAO on MAO-A” value was found to be 7900 and the IC50 is 79 µM. In addition, at human MAO-B, the “Specificity of SSAO on MAO-B” value is recorded as 1200 and the IC50 was 12 µM.

In turn, `Cl.NC/C(=C\F)Cc1ccc(Cl)cc1` [Compound I-3-Z, (Z)-2-(4-Chlorobenzyl)-3-fluoro-allylamine hydrochloride] displayed a melting point of 145 to 146 °C. On Recombinant human MAO-A, the “Specificity of SSAO on MAO-A” value is given as 3250 and the IC50 came to 91 µM. At human MAO-B, the “Specificity of SSAO on MAO-B” value stood at 3 and the IC50 is 0.084 µM.

`COc1cccc(C/C(=C/F)CN)c1.Cl` [Compound I-5-Z, (Z)-3-Fluoro-2-(3-methoxybenzyl)allylamine hydrochloride] came in with a melting point of 119 to 120.5 °C. Further, at Recombinant human MAO-A, the “Specificity of SSAO on MAO-A” value is given as 2643 and the 50% inhibitory concentration (IC50) was 74 µM. On human MAO-B, the “Specificity of SSAO on MAO-B” value is 64.3 and the IC50 was found to be 1.8 µM.

For `CC(C)Oc1ccc(C/C(=C\F)CN)cc1` [Compound I-8-E, (E)-3-Fluoro-2-(4-isopropoxybenzyl)allylamine hydrochloride], at Recombinant human MAO-A, the “Specificity of SSAO on MAO-A” value came to 4211 and the IC50 worked out at 48 µM. On human MAO-B, the “Specificity of SSAO on MAO-B” value stood at 3070 and the IC50 stood at 35 µM.

Compound `CC(C)Oc1ccc(C/C(=C/F)CN)cc1.Cl` [Compound I-8-Z, (Z)-3-Fluoro-2-(4-isopropoxybenzyl)allylamine hydrochloride] gave a melting point of 147 to 148 °C. Further, at Recombinant human MAO-A, the “Specificity of SSAO on MAO-A” value is 7000 and the IC50 came out at 35 µM. At human MAO-B, the “Specificity of SSAO on MAO-B” value stood at 5400 and the half-inhibitory concentration (IC50) was 27 µM.

On to `CSc1ccc(C/C(=C/F)CN)cc1.Cl` [Compound I-9-Z, (Z)-3-Fluoro-2-(4-methylthiobenzyl)allylamine hydrochloride], for which the melting point was 144 to 146 °C. On Recombinant human MAO-A, the “Specificity of SSAO on MAO-A” value is given as 8385 and the IC50 is 109 µM. For the same compound, at human MAO-B, the “Specificity of SSAO on MAO-B” value stood at 200 and the half-maximal inhibitory concentration (IC50) came out at 2.4 µM.

For the compound `CC(C)c1ccc(C/C(=C\F)CN)cc1.Cl` [Compound I-14-E, (E)-3-Fluoro-2-(4-isopropylbenzyl)allylamine hydrochloride], the melting point lay in the range of 175 to 176 °C. Also, on Recombinant human MAO-A, the “Specificity of SSAO on MAO-A” value came to 5923 and the IC50 is 77 µM. In addition, on human MAO-B, the “Specificity of SSAO on MAO-B” value came out at 2.54 and the IC50 is 0.033 µM.

`CC(C)c1ccc(C/C(=C/F)CN)cc1.Cl` [Compound I-14-Z, (Z)-3-Fluoro-2-(4-isopropylbenzyl)allylamine hydrochloride] returned a melting point of 175 to 176 °C. Moreover, on Recombinant human MAO-A, the “Specificity of SSAO on MAO-A” value stood at 11250 and the 50% inhibitory concentration (IC50) was 90 µM. Besides, at human MAO-B, the “Specificity of SSAO on MAO-B” value was 1250 and the 50% inhibitory concentration (IC50) turned out to be 9.6 µM.

Compound `CC(C)(C)c1ccc(C/C(=C/F)CN)cc1.Cl` [Compound I-15-Z, (Z)-3-Fluoro-2-(4-tert-butylbenzyl)allylamine hydrochloride] showed a melting point of 155 to 156 °C. At Recombinant human MAO-A, the “Specificity of SSAO on MAO-A” value stood at 17000 and the IC50 was determined as 119 µM. Also, on human MAO-B, the “Specificity of SSAO on MAO-B” value came out at 5429 and the IC50 was 38 µM.

As to `NC/C(=C\F)CCc1ccc(F)cc1` [Compound I-99-Z, (Z)-2-(fluoromethylene)-4-(4-fluorophenyl)butan-1-amine], at Recombinant human MAO-A, the “Specificity of SSAO on MAO-A” value worked out at 177 and the IC50 came to 23 µM. Moreover, on human MAO-B, the “Specificity of SSAO on MAO-B” value was 2.1 and the IC50 is 0.27 µM.

As for `NC/C(F)=C\Cc1cc(F)cc(C(F)(F)F)c1` [II-1-E, (E)-2-Fluoro-4-(3-fluoro-5-trifluoromethylphenyl)-but-2-enylamine], on Recombinant human MAO-A, the “Specificity of SSAO on MAO-A” value is on record as more than 2400 and the half-inhibitory concentration (IC50) was more than 87 µM. In addition, at human MAO-B, the “Specificity of SSAO on MAO-B” value is reported as more than 2400 and the half-maximal inhibitory concentration (IC50) is more than 87 µM.

As for `CN(C)c1cccc(C/C=C(/F)CN)c1.Cl` [II-11-E, (E)-2-Fluoro-4-(3-dimethylaminophenyl)-2-butenylamine hydrochloride], at Recombinant human MAO-A, the “Specificity of SSAO on MAO-A” value worked out at 2600 and the half-maximal inhibitory concentration (IC50) is 286 µM. Besides, at human MAO-B, the “Specificity of SSAO on MAO-B” value is on record as 7272.

Take `COc1cccc(C/C(C)=C(/F)CN)c1` [II-18-E, hydrochloride]: at Recombinant human MAO-A, the “Specificity of SSAO on MAO-A” value was more than 3448 and the IC50 was more than 1000 µM. Besides, on human MAO-B, the “Specificity of SSAO on MAO-B” value was more than 3448 and the IC50 was more than 1000 µM.

Consider `COc1cccc(OC/C=C(/F)CN)c1` [II-19-E, (E)-2-fluoro-4-(3-methoxyphenoxy)but-2-en-1-amine], for which, at Recombinant human MAO-A, the “Specificity of SSAO on MAO-A” value is given as more than 6250 and the half-inhibitory concentration (IC50) is more than 1000 µM. In addition, at human MAO-B, the “Specificity of SSAO on MAO-B” value worked out at 5312 and the concentration for half-maximal inhibition (IC50) is 850 µM.
